Experimental data published in ChEMBL document CHEMBL1201862, “PubChem BioAssay data set” (2004).
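How tested: cells in 96-well plates exposed to compound for 48 hours at five concentrations. GI50 = concentration required for 50% inhibition of growth.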 Calls of active or inactive are those of the source. Rule as the data show it: active = GI50 up to about 1.1 µM and inactive = higher.

Columns and labels:
Test in all cases: NCI tumour cell line growth inhibition, 48 h
786-0 = system: 786-0
MOLT-4 = system: MOLT-4
TK-10 = system: TK-10
UACC-62 = system: UACC-62
CCRF-CEM = system: CCRF-CEM
LOX IMVI = system: LOX IMVI
KM12 = system: KM12
UO-31 = system: UO-31
HOP-62 = system: HOP-62
M14 = system: M14
K562 = system: K562
A549 = system: A549
SN12C = system: SN12C
IGROV-1 = system: IGROV-1
CAKI-1 = system: CAKI-1
RXF 393 = system: RXF 393
HCT-116 = system: HCT-116
SF-539 = system: SF-539
A498 = system: A498

Measured: GI50

Cc1cc2c(c(C(=O)O)c1C)-c1cccc(F)c1C2=O
inactive: 786-0 > 100 µM | MOLT-4 > 100 µM | TK-10 > 100 µM | UACC-62 > 100 µM | CCRF-CEM > 100 µM | LOX IMVI > 100 µM | KM12 > 100 µM | UO-31 27 µM | HOP-62 > 100 µM | M14 > 100 µM | K562 > 100 µM | A549 > 100 µM | SN12C > 100 µM | IGROV-1 > 100 µM | CAKI-1 > 100 µM | RXF 393 66.7 µM

CC(=O)NS(=O)(=O)c1ccc(NC(=O)COC(=O)c2cccc3c(=O)c4ccccc4[nH]c23)cc1
inactive: 786-0 > 100 µM | MOLT-4 > 100 µM | TK-10 > 100 µM | UACC-62 > 100 µM | CCRF-CEM > 100 µM | LOX IMVI > 100 µM | KM12 > 100 µM | UO-31 > 100 µM | HOP-62 > 100 µM | M14 > 100 µM | HCT-116 > 100 µM | K562 > 100 µM | A549 > 100 µM | SN12C > 100 µM | IGROV-1 > 100 µM | SF-539 > 100 µM | RXF 393 > 100 µM

CN(C)CC[N+]1=Nc2cccc3cccc(c23)N1
inactive: 786-0 55.1 µM | MOLT-4 21.6 µM | TK-10 > 100 µM | UACC-62 99.8 µM | CCRF-CEM 27.8 µM | LOX IMVI 24.1 µM | KM12 > 100 µM | A498 44.6 µM | UO-31 13.9 µM | HOP-62 71 µM | M14 > 100 µM | HCT-116 3.86 µM | K562 26.4 µM | A549 44.1 µM | SN12C 57.9 µM | IGROV-1 61.8 µM | SF-539 72.9 µM | CAKI-1 31 µM

COc1cc(/C=C2\[C@H]3c4c(c(OC)c(C)c(OC)c4OC)C[C@@H](C(=O)N2Cc2ccccc2)N3C(=O)OC(C)C)c(OC)c(C)c1OC
inactive: 786-0 > 100 µM | MOLT-4 42.9 µM | TK-10 79.3 µM | UACC-62 92.9 µM | CCRF-CEM 54 µM | LOX IMVI > 100 µM | KM12 66.8 µM | A498 > 100 µM | UO-31 66.7 µM | HOP-62 > 100 µM | M14 > 100 µM | HCT-116 58.7 µM | K562 40 µM | A549 > 100 µM | SN12C 88.7 µM | IGROV-1 > 100 µM | SF-539 > 100 µM | RXF 393 > 100 µM

COC(=O)C1=C(C(=O)OC)C23C=CC=CC24C(C(=O)OC)=C(C(=O)OC)C4C1C3 (stereo not given)
inactive: 786-0 > 100 µM | MOLT-4 > 100 µM | TK-10 > 100 µM | UACC-62 56.6 µM | CCRF-CEM 69.7 µM | KM12 > 100 µM | UO-31 > 100 µM | HOP-62 > 100 µM | M14 > 100 µM | HCT-116 77.1 µM | K562 30.5 µM | A549 > 100 µM | SN12C > 100 µM | IGROV-1 > 100 µM | SF-539 > 100 µM | RXF 393 > 100 µM

CCOC(=O)/C(C#N)=C\Sc1ccccc1
inactive: 786-0 15.3 µM | MOLT-4 5.05 µM | TK-10 32.4 µM | UACC-62 16.1 µM | CCRF-CEM 7.83 µM | LOX IMVI 7.46 µM | KM12 15.9 µM | UO-31 9.2 µM | HOP-62 36.1 µM | M14 15.9 µM | HCT-116 16.8 µM | K562 18.3 µM | A549 10.4 µM | SN12C 14 µM | IGROV-1 10.2 µM | SF-539 15.8 µM | CAKI-1 22.3 µM | RXF 393 16.8 µM

COc1ccccc1NC(=O)CC(=O)NNCC(=O)Nc1nc(-c2ccccc2)cs1
inactive: 786-0 > 100 µM | MOLT-4 > 100 µM | TK-10 > 100 µM | UACC-62 > 100 µM | CCRF-CEM > 100 µM | LOX IMVI > 100 µM | KM12 > 100 µM | HOP-62 > 100 µM | M14 > 100 µM | HCT-116 > 100 µM | K562 > 100 µM | A549 > 100 µM | SN12C > 100 µM | IGROV-1 > 100 µM | SF-539 > 100 µM | RXF 393 > 100 µM

O=C(CC1(O)C(=O)Nc2ccc([N+](=O)[O-])cc21)c1ccncc1 (stereo not given)
inactive: 786-0 69.7 µM | MOLT-4 24.2 µM | TK-10 > 100 µM | UACC-62 29.2 µM | CCRF-CEM 29 µM | LOX IMVI 15.5 µM | KM12 39 µM | A498 > 100 µM | UO-31 56.1 µM | HOP-62 > 100 µM | M14 51.6 µM | HCT-116 30.8 µM | K562 20.5 µM | A549 > 100 µM | SN12C 43.6 µM | SF-539 51.3 µM | RXF 393 14.8 µM

Cc1cc(O)nc(NNC(C#N)c2ccc(N(C)C)cc2)n1 (stereo not given)
inactive: 786-0 > 100 µM | TK-10 > 100 µM | UACC-62 > 100 µM | CCRF-CEM > 100 µM | LOX IMVI > 100 µM | KM12 > 100 µM | UO-31 > 100 µM | HOP-62 > 100 µM | M14 > 100 µM | HCT-116 > 100 µM | K562 > 100 µM | A549 > 100 µM | SN12C > 100 µM | IGROV-1 > 100 µM | SF-539 > 100 µM | CAKI-1 > 100 µM | RXF 393 > 100 µM

CCCCNc1nc(C#N)c(N)s1
inactive: 786-0 > 100 µM | MOLT-4 > 100 µM | TK-10 > 100 µM | UACC-62 > 100 µM | LOX IMVI > 100 µM | KM12 > 100 µM | UO-31 > 100 µM | HOP-62 > 100 µM | M14 > 100 µM | HCT-116 > 100 µM | K562 > 100 µM | A549 > 100 µM | SN12C > 100 µM | IGROV-1 > 100 µM | SF-539 > 100 µM | CAKI-1 > 100 µM

CC(c1ccccc1)C(O)S(=O)(=O)O (stereo not given)
inactive: 786-0 > 100 µM | MOLT-4 > 100 µM | TK-10 > 100 µM | UACC-62 > 100 µM | CCRF-CEM > 100 µM | LOX IMVI 36.8 µM | KM12 > 100 µM | A498 > 100 µM | UO-31 > 100 µM | M14 > 100 µM | HCT-116 > 100 µM | K562 > 10 µM | A549 > 100 µM | SN12C > 100 µM | IGROV-1 > 100 µM | SF-539 > 100 µM | RXF 393 > 100 µM

NC1C[C@H](n2cc(/C=C/Br)c(=O)[nH]c2=O)C[C@@H]1CO (stereo not given in full)
inactive: 786-0 > 100 µM | MOLT-4 > 100 µM | TK-10 > 100 µM | UACC-62 > 100 µM | CCRF-CEM > 100 µM | LOX IMVI > 100 µM | A498 > 100 µM | UO-31 > 100 µM | HOP-62 > 100 µM | M14 > 100 µM | K562 > 100 µM | SN12C > 100 µM | SF-539 > 100 µM | RXF 393 > 100 µM
